IC50 data for 17 compounds are collected here from US20260028365A1 (BIOGEN MA INC., priority 2022, published 2026).

For experiment [1], the target named is JAK2 (Homo sapiens (Human), UniProt O60674). Put plainly: pSTAT5 Cell Assay (MSD, TF1 cells). Type of experiment: cell-based. Here is the method:
Compounds of the disclosure were assessed for their ability to inhibit the JAK2 kinase activity on STAT5 utilizing an MSD-platform plate-based assay format. TF1 cells natively expressing STAT5 and JAK2 were serum-starved to reduce background phosphorylation levels, then cells were treated with compounds of disclosure for 1 hour with a 10-point four-fold dilution series starting at 10 μM. Cells were then stimulated with 30 ng/mL IL-3 for 15 minutes. Cells were then lysed and pSTAT5 levels were quantitated using an MSD plate-based assay with anti-STAT5 antibodies. The data were normalized and the percent activity versus log concentration of compound was fitted with a 4-parameter logistic model to generate a curve and an IC50 value.

For experiment [2], the target named is Tyk2 (Homo sapiens (Human), UniProt P29597). The experiment in a line: pSTAT4 Cell Assay (MSD, NK92 cells). The experiment is classed as cell-based.
Tyk2, sequence (P29597 whole entry): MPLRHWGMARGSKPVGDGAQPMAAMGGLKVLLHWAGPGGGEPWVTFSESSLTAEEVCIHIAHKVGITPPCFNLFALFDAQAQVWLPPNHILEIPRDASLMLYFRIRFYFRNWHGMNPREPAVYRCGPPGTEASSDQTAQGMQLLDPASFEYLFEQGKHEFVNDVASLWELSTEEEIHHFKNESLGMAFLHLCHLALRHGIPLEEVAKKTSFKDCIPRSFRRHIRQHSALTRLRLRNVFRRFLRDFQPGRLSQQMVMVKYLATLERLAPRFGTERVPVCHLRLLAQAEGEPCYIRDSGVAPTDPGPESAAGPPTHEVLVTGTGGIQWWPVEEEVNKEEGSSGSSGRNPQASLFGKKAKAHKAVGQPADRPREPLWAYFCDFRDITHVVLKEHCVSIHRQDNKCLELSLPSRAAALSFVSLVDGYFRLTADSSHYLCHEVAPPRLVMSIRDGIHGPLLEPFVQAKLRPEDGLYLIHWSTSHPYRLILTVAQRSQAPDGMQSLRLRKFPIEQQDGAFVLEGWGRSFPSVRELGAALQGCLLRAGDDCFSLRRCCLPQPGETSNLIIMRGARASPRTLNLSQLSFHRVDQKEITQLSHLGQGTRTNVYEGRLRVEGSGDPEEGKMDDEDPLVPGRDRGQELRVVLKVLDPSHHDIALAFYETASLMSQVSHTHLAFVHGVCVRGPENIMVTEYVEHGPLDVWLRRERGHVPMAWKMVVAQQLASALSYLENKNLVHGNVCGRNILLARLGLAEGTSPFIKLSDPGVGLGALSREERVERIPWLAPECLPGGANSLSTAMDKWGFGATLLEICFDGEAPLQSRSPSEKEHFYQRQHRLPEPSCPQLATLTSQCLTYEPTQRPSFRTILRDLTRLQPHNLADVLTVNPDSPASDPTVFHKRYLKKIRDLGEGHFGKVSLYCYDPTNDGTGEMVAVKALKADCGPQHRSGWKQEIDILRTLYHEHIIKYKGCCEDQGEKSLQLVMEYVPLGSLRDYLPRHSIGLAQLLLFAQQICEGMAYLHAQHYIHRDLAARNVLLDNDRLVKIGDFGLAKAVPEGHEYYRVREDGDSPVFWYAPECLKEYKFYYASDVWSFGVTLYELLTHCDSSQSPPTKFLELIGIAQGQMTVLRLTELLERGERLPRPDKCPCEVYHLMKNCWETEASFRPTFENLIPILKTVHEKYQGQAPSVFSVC
For experiment [3], the target named is JAK1 (Homo sapiens (Human), UniProt P23458). The experiment in a line: pSTAT3 Cell Assay (MSD, TF1 cells). Type of experiment: cell-based. In outline: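 Readout is pSTAT3 in lysates, quantified on an MSD plate assay using anti-STAT3 antibodies. Before lysis, TF1 cells had been serum-starved, exposed to compound for 1 hour across ten four-fold dilutions starting at 10 μM, and given IL-6 for 15 minutes.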
JAK1, sequence (P23458 whole entry): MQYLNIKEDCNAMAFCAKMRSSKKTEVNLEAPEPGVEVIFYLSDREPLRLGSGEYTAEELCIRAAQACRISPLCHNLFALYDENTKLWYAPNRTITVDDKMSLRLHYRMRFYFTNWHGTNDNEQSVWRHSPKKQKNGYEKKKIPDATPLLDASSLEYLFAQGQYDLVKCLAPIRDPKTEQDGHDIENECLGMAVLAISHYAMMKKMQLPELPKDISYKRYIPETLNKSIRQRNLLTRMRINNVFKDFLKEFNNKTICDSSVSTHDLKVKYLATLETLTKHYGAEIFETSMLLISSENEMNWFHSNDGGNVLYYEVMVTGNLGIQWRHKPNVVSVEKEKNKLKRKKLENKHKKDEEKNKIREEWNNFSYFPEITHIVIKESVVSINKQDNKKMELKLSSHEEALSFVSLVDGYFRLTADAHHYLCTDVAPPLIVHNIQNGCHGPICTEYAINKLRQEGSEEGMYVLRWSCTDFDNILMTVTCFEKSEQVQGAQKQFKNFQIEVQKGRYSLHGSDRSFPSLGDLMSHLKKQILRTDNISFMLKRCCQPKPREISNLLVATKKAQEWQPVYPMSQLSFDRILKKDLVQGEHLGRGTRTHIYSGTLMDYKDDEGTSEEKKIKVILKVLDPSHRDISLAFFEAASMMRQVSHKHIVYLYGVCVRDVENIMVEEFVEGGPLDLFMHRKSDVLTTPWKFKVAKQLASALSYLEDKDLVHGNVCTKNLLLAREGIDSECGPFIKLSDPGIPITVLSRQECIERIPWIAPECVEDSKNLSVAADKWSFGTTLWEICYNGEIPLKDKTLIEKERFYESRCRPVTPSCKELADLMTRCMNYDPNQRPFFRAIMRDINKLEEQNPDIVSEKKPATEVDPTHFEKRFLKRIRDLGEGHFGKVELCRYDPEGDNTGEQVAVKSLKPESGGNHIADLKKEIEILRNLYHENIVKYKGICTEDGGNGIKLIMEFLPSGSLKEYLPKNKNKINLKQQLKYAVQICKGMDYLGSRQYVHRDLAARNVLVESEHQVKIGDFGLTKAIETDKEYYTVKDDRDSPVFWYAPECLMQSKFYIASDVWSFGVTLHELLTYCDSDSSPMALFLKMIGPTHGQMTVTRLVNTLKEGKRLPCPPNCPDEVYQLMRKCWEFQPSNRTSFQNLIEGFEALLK

The target of experiment [4] is JH2 domain of human Tyk2 (Homo sapiens (Human), UniProt P29597). Put plainly: JH2 Biochemical Assay (TR-FRET probe displacement). The experiment is classed as binding. A general note: In TR-FRET formats the signal depends on donor and acceptor labels being close together.
JH2 domain of human Tyk2, sequence (P29597 575-876): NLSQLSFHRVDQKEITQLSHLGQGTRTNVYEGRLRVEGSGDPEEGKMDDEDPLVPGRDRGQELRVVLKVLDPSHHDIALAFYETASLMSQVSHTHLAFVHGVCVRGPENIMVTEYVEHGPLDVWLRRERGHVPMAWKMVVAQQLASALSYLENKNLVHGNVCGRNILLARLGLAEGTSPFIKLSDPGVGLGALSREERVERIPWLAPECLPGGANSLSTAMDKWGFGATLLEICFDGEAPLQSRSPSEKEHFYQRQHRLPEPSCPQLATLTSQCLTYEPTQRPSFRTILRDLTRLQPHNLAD
[5] abbreviates: JH2 domain of human Tyk2, TR-FRET probe displacement.
The mark [6] stands for this setting: TR-FRET probe displacement, JH2 domain of human Tyk2.
Setting [7] is: TR-FRET probe displacement, JH2 domain.

Read-outs that look alike come from different tables or passages of the source.

JAK2, sequence (O60674 whole entry): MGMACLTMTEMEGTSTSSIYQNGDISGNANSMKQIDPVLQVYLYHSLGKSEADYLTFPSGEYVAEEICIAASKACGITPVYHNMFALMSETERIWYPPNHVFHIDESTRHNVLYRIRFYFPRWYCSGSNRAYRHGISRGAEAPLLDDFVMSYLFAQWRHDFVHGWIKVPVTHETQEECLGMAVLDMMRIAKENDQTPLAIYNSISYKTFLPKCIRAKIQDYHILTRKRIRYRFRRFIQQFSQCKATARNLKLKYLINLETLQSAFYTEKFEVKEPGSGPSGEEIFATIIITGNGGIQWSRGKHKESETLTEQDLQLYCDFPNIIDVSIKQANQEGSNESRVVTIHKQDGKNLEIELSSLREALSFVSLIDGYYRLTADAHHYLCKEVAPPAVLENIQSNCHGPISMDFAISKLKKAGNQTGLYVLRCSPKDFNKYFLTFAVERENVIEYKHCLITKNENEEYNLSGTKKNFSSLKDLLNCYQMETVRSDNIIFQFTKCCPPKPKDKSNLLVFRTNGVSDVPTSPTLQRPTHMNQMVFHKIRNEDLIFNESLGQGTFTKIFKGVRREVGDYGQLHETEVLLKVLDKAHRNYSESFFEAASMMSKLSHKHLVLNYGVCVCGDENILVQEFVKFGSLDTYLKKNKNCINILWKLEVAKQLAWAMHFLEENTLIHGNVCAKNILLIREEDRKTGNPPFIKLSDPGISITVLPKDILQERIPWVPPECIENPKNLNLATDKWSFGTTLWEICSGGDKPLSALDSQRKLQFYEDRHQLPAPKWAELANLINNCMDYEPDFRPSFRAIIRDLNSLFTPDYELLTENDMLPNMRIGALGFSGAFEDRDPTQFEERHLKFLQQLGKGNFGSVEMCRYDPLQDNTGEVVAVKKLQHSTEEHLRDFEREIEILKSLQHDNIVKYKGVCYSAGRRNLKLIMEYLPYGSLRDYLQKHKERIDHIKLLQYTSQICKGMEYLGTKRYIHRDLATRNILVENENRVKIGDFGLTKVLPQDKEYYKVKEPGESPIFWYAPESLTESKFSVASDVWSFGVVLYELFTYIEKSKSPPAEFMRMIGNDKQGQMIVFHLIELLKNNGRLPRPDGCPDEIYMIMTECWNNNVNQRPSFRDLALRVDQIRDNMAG

A word on the IC50: it is the concentration at which inhibition is half-maximal. Higher therefore signals lower potency. Consider `CC(=O)Nc1cc(Nc2cc(C)nc(C(C)(F)F)n2)c(OC[C@H]2C[C@@H]2F)cn1` (racemic) [Example 426, Trans-rac-N-(4-((2-(1,1-difluoroethyl)-6-methylpyrimidin-4-yl)amino)-5-((2-fluorocyclopropyl)methoxy)pyridin-2-yl)acetamide], for which the IC50 in experiment [1] (IL-3 stimulated, MSD) is not below 1000 nM; in experiment [2] (MSD) it was not above 10 nM; in experiment [3] (IL-6 stimulated, MSD), not below 1000 nM; in experiment [4] (setting [5]), not above 10 nM.

As for `CCOc1cnc(NC(C)=O)cc1Nc1cc(OC)nc(C(C)(F)F)n1` [Example 5, N-(4-((2-(1,1-difluoroethyl)-6-methoxypyrimidin-4-yl)amino)-5-ethoxypyridin-2-yl)acetamide], the 50% inhibitory concentration (IC50) in experiment [1] (IL-3 stimulation, MSD) was not below 1000 nM; in experiment [2] (MSD), 10 to 100 nM; in experiment [3] (IL-6 stimulation, MSD), not below 1000 nM; in experiment [4] (setting [6]) it was not above 10 nM.

Consider `COCCn1ncc(-c2cnc(NC(C)=O)cc2Nc2cc(C)nc(C(C)(F)F)n2)n1` [Example 260, N-(4-((2-(1,1-difluoroethyl)-6-methylpyrimidin-4-yl)amino)-5-(2-(2-methoxyethyl)-2H-1,2,3-triazol-4-yl)pyridin-2-yl)acetamide], for which the IC50 is not below 1000 nM in experiment [1] (IL-3 stimulation, MSD); not above 10 nM in experiment [2] (MSD); not below 1000 nM in experiment [3] (IL-6 stimulation, MSD); not above 10 nM in experiment [4] (setting [6]).

Take `CC(=O)Nc1cc(Nc2ccnc(C(C)(F)F)n2)c(-c2cnc(C(C)(C)O)cn2)cn1` [Example 853, N-(4-((2-(1,1-difluoroethyl)pyrimidin-4-yl)amino)-5-(5-(2-hydroxypropan-2-yl)pyrazin-2-yl)pyridin-2-yl)acetamide]: the half-maximal inhibitory concentration (IC50) in experiment [1] (IL-3 stimulated) was not below 1000 nM; in experiment [2], 10 to 100 nM; in experiment [3] (IL-6 stimulated), not below 1000 nM; in experiment [4] (setting [7]), not above 10 nM.

For the compound `CCc1cc(Nc2cc(NC(C)=O)ncc2OCCCOC)nc(C(C)(F)F)n1` [Example 69, N-(4-((2-(1,1-difluoroethyl)-6-ethylpyrimidin-4-yl)amino)-5-(3-methoxypropoxy)pyridin-2-yl)acetamide], the IC50 in experiment [1] (IL-3 stimulation, MSD) is not below 1000 nM; in experiment [2] (MSD), 10 to 100 nM; in experiment [3] (IL-6 stimulation, MSD), not below 1000 nM; in experiment [4] (setting [6]) it was not above 10 nM.

For `CC(=O)Nc1cc(Nc2ccnc(C(C)(F)F)n2)c(-c2ncc(OC(F)F)cn2)cn1` [Example 825, N-(4-((2-(1,1-difluoroethyl)pyrimidin-4-yl)amino)-5-(5-(difluoromethoxy)pyrimidin-2-yl)pyridin-2-yl)acetamide], the IC50 was not below 1000 nM in experiment [1] (IL-3 stimulated), 10 to 100 nM in experiment [2], not below 1000 nM in experiment [3] (IL-6 stimulated) and not above 10 nM in experiment [4] (setting [7]).

`CCOc1cnc(NC(C)=O)cc1Nc1cc(-c2cnn(C(C)C)c2)nc(C(C)(F)F)n1` [Example 306, N-(4-((2-(1,1-difluoroethyl)-6-(1-isopropyl-1H-pyrazol-4-yl)pyrimidin-4-yl)amino)-5-ethoxypyridin-2-yl)acetamide]: the IC50 in experiment [1] (IL-3 stimulation, MSD) was not below 1000 nM; in experiment [2] (MSD), not above 10 nM; in experiment [3] (IL-6 stimulation, MSD), not below 1000 nM; in experiment [4] (setting [6]) it was not above 10 nM.

Consider `CC(=O)Nc1cc(Nc2cc(C)nc(C(C)(F)F)n2)c(-c2ccc(CN(C)C)cn2)cn1` [Example 648, N-(4′-((2-(1,1-difluoroethyl)-6-methylpyrimidin-4-yl)amino)-5-((dimethylamino)methyl)-[2,3′-bipyridin]-6′-yl)acetamide], for which the IC50 in experiment [1] (IL-3 stimulated, MSD) was not below 1000 nM; in experiment [2] (MSD) it was not above 10 nM; in experiment [3] (IL-6 stimulated, MSD), not below 1000 nM; in experiment [4] (setting [5]) it was not above 10 nM.

In the case of `CC(=O)Nc1cc(Nc2cc(C)nc(C(C)(F)F)n2)c(OCC2COC(C)(C)CO2)cn1` (centres unmarked) [Example 430, N-(4-((2-(1,1-difluoroethyl)-6-methylpyrimidin-4-yl)amino)-5-((5,5-dimethyl-1,4-dioxan-2-yl)methoxy)pyridin-2-yl)acetamide], the IC50 in experiment [1] (IL-3 stimulated, MSD) was not below 1000 nM; in experiment [2] (MSD) it was 10 to 100 nM; in experiment [3] (IL-6 stimulated, MSD), not below 1000 nM; in experiment [4] (setting [5]) it was not above 10 nM.

For `CCC(=O)Nc1cc(Nc2cc(CC)nc(C(C)(F)F)n2)c(OCCOC)cn1` [Example 88, N-(4-((2-(1,1-difluoroethyl)-6-ethylpyrimidin-4-yl)amino)-5-(2-methoxyethoxy)pyridin-2-yl)propionamide], the IC50 in experiment [1] (IL-3 stimulation, MSD) is not below 1000 nM; in experiment [2] (MSD), not above 10 nM; in experiment [3] (IL-6 stimulation, MSD) it was not below 1000 nM; in experiment [4] (setting [6]), not above 10 nM.

On to `COCCOc1cnc(NC(C)=O)cc1Nc1cc(C2CC2)nc(C(C)(F)F)n1` [Example 66, N-(4-((6-cyclopropyl-2-(1,1-difluoroethyl)pyrimidin-4-yl)amino)-5-(2-methoxyethoxy)pyridin-2-yl)acetamide], for which the IC50 in experiment [1] (IL-3 stimulation, MSD) was not below 1000 nM; in experiment [2] (MSD) it was not above 10 nM; in experiment [3] (IL-6 stimulation, MSD) it was not below 1000 nM; in experiment [4] (setting [6]) it was not above 10 nM.

For the compound `COCc1nccc(-c2cnc(NC(C)=O)cc2Nc2cc(C)nc(C(C)(F)F)n2)n1` [Example 661, N-(4-((2-(1,1-difluoroethyl)-6-methylpyrimidin-4-yl)amino)-5-(2-(methoxymethyl)pyrimidin-4-yl)pyridin-2-yl)acetamide], the concentration for half-maximal inhibition (IC50) in experiment [1] (IL-3 stimulated, MSD) is not below 1000 nM; in experiment [2] (MSD) it was not above 10 nM; in experiment [3] (IL-6 stimulated, MSD), not below 1000 nM; in experiment [4] (setting [5]), not above 10 nM.

Take `CCOc1cc(Nc2cc(NC(C)=O)ncc2OCCOC)nc(C(C)(F)F)n1` [Example 77, N-(4-((2-(1,1-difluoroethyl)-6-ethoxypyrimidin-4-yl)amino)-5-(2-methoxyethoxy)pyridin-2-yl)acetamide]: the IC50 is not below 1000 nM in experiment [1] (IL-3 stimulation, MSD); not above 10 nM in experiment [2] (MSD); not below 1000 nM in experiment [3] (IL-6 stimulation, MSD); not above 10 nM in experiment [4] (setting [6]).

As for `CC(=O)Nc1cc(Nc2ccnc(C(C)(F)F)n2)c(-c2cc(C)ncn2)cn1` [Example 201, N-(4-((2-(1,1-difluoroethyl)pyrimidin-4-yl)amino)-5-(6-methylpyrimidin-4-yl)pyridin-2-yl)acetamide], the IC50 in experiment [1] (IL-3 stimulation, MSD) was not below 1000 nM; in experiment [2] (MSD) it was 10 to 100 nM; in experiment [3] (IL-6 stimulation, MSD) it was not below 1000 nM; in experiment [4] (setting [6]) it was not above 10 nM.

`CC(=O)Nc1cc(Nc2cc(C)nc(C(C)(F)F)n2)c(-c2cnn(C)n2)cn1` [Example 227, N-(4-((2-(1,1-difluoroethyl)-6-methylpyrimidin-4-yl)amino)-5-(2-methyl-2H-1,2,3-triazol-4-yl)pyridin-2-yl)acetamide]: the IC50 in experiment [1] (IL-3 stimulation, MSD) is not below 1000 nM; in experiment [2] (MSD) it was not above 10 nM; in experiment [3] (IL-6 stimulation, MSD) it was not below 1000 nM; in experiment [4] (setting [6]) it was not above 10 nM.

`CC(=O)Nc1cc(Nc2cc(C)nc(C(C)(F)F)n2)c(-c2cc(C(F)F)ncn2)cn1` [Example 246, N-(4-((2-(1,1-difluoroethyl)-6-methylpyrimidin-4-yl)amino)-5-(6-(difluoromethyl)pyrimidin-4-yl)pyridin-2-yl)acetamide]: the IC50 was not below 1000 nM in experiment [1] (IL-3 stimulation, MSD); 10 to 100 nM in experiment [2] (MSD); not below 1000 nM in experiment [3] (IL-6 stimulation, MSD); not above 10 nM in experiment [4] (setting [6]).

For `CO[C@H]1C[C@@H](Oc2cnc(NC(C)=O)cc2Nc2cc(OC3CC3)nc(C(C)(F)F)n2)C1` [Example 351, N-(4-((6-cyclopropoxy-2-(1,1-difluoroethyl)pyrimidin-4-yl)amino)-5-((1s,3s)-3-methoxycyclobutoxy)pyridin-2-yl)acetamide], the IC50 is not below 1000 nM in experiment [1] (IL-3 stimulation, MSD); not above 10 nM in experiment [2] (MSD); not below 1000 nM in experiment [3] (IL-6 stimulation, MSD); not above 10 nM in experiment [4] (setting [6]).
